# Measurements from patent US12533429B2, “Surface enhanced raman scattering nanoparticles and their use in detecting and imaging oxidative stress” (The Board of Trustees of the Leland Stanford Junior …, priority 2019, dated 2026).
# “And” between values parts separate entries of the source, which are not always exact repeats. Equal entries are not always repeated.
# Tests used:
# A431 cells = assay: DCFH-DA fluorometric ROS assay in A431 cells; type: cell-based, human; conditions: DCFH-DA 40 μM, 24 h
# Experimental: (§1) To measure ROS, a traditional fluorometric assay using Dichlorofluorescein diacetate (DCFH-DA; Sigma Aldrich, USA) was performed. DCFH-DA is a cell-permeable non-fluorescent probe which is hydrolyzed by intracellular esterases, thereby trapping it within the cell. This non-fluorescent molecule can then be oxidized by ROS, which turns it into fluorescent dichlorofluorescein (DCF). The level of intracellular fluorescence is therefore proportional to the amount of intracellular ROS production with a linear dynamic range [12]. All experiments were performed in 12-well plates. A431 and AsPC-1 cells were seeded in 12-well culture plates achieving a cell density of 50,000, 100,000, 200,000 and 300,000 cells/well. Cells were incubated with DCFH-DA (40 μM, 200 μL) in DMEM-10% FBS-50 U/mL penicillin-50 μg/mL streptomycin culture medium at 37° C. in a humidified incubator containing 5% CO2/95% air for 24 h. The fluorescence from DCF was then measured using a microplate spectrophotometer system with […].
# AsPC-1 cells = assay: DCFH-DA fluorometric ROS assay in AsPC-1 cells; type: cell-based, human; conditions: DCFH-DA 40 μM, 24 h
# Experimental: as §1
# AD-MSCs = assay: DCFH-DA fluorometric ROS assay in AD-MSCs; type: cell-based; conditions: 300,000 AD-MSCs
substance,measurement,setting,value
Dichlorofluorescein diacetate [DCFH-DA],"ROS production, DCFH-DA assay","A431 cells; 50,000 A431 cells",0.17±0.01 absorbance units
same,"ROS production, DCFH-DA assay","A431 cells; 100,000 A431 cells",0.49±0.01 absorbance units
same,"ROS production, DCFH-DA assay","A431 cells; 200,000 A431 cells",0.96±0.07 absorbance units
same,"ROS production, DCFH-DA assay","A431 cells; 300,000 A431 cells",1.06±0.05 absorbance units and 1.10±0.04 absorbance units
same,"ROS production, DCFH-DA assay","AsPC-1 cells; 50,000 AsPC-1 cells",0.15±0.04 absorbance units
same,"ROS production, DCFH-DA assay","AsPC-1 cells; 100,000 AsPC-1 cells",0.51±0.06 absorbance units
same,"ROS production, DCFH-DA assay","AsPC-1 cells; 200,000 AsPC-1 cells",0.82±0.05 absorbance units
same,"ROS production, DCFH-DA assay",AD-MSCs,1.06±0.05 absorbance units
